GI50 and TGI data for 15 compounds are collected here from PubChem BioAssay (NCI).

Common to all, as to experiment: NCI-60 cell line screen, 48 h
Assay [1] concerns OVCAR-5 ovarian.
Assay [2] concerns HT29 colon.
In assay [3] the test system is CCRF-CEM leukemia.
For assay [4], the system named is UACC-257 melanoma.
In assay [5] the test system is NCI-H226 lung.
Assay [6] deals with SNB-75 CNS.
Assay [7] concerns SK-MEL-2 melanoma.
Assay [8] deals with HL-60(TB) leukemia.
In assay [9] the test system is PC-3 prostate.
The subject of assay [10] is T-47D breast.

SMILES strings stand for the structures.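 Compound exposure: 48 hours, 5 concentrations, 96-well plates. GI50 marks 50% less growth. TGI marks complete inhibition of growth.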 Bounds are passed on as bounds.

As to `CCC[CH2][Ge]([CH2]CCC)([CH2]CCC)[O]C(=O)C(OC(C)=O)c1ccccc1` (centres undefined), the GI50 in assay [1] was 3.36 µM; in assay [2] it was 0.742 µM; in assay [3] it was 0.229 µM; in [4] it was 0.246 µM; in [5], 0.351 µM; in assay [6], 0.973 µM. Further, the GI50 was 3.17 µM in assay [7] and 0.314 µM in assay [8]. Further, the TGI in assay [1] is 17.5 µM; in assay [2], 13.8 µM; in assay [3], above 26.1 µM; in assay [4] it was 11.5 µM; in assay [5], 19.7 µM; in assay [6], 25.2 µM. In addition, the results for the TGI in [7] and in [8] were 19.5 µM and 2.09 µM, respectively.
In the case of `CC(=O)OCc1c(C)c2ccccc2n1C(C)=O`, the TGI is above 100 µM in [1]; above 100 µM in assay [2]; 73.6 µM in assay [3]; 89.8 µM in assay [4]; above 100 µM in assay [5]; above 100 µM in [6]. Moreover, the values for the TGI in assay [7] and in assay [8] were 43.3 µM and 66.9 µM, respectively.
Take `N#Cc1nc(Nc2ccc(Cl)cc2)sc1N`: the TGI was above 46.4 µM in [1]; above 51.9 µM in assay [2]; above 100 µM in assay [3]; 31.1 µM in [4]; above 71.7 µM in [5]; above 71.1 µM in assay [6]. The TGI in assay [7] was 47.3 µM; in [8] it was above 76.7 µM.
Take `Cc1ccc(S(=O)(=O)NC(=O)C#CCOC2CCCCO2)cc1` (centres undefined): the TGI in assay [1], in assay [2], in assay [3], in [4], in assay [5] and in assay [6] was above 100 µM each time. In addition, the TGI in assay [7] and in [8] was above 100 µM each time.
As to `O=C(CC(=O)c1cccc([N+](=O)[O-])c1)C(=O)Nc1nc([N+](=O)[O-])cs1`, the TGI in assay [1], in [2], in assay [3], in assay [4], in assay [5] and in [7] was above 100 µM in each case. Moreover, the TGI in assay [8] is above 100 µM.
Regarding `N#CC(C(=O)C(=O)Nc1ccc(Cl)c(Cl)c1)c1ccc(Cl)cc1` (centres undefined), the TGI in assay [1], in assay [2], in [3], in assay [4], in assay [5] and in [6] was above 100 µM each time. In addition, the TGI in assay [7] and in assay [8] was above 100 µM in each case.
On to `CC(C)N(C(=O)C12C3C4C5C3C1(C#N)C5C42)C(C)C` (centres undefined), for which the TGI in assay [1], in [2], in [3], in [4], in assay [5] and in assay [6] was above 100 µM throughout. Further, the TGI in [7] and in assay [8] was above 100 µM throughout.
In the case of `COc1ccc2c([nH]c3cc(O)c(C)cc32)c1CC=C(C)C`, the TGI was above 25 µM in [1]; above 25 µM in assay [2]; 17.5 µM in assay [3]; above 25 µM in [5]; above 25 µM in assay [7]; above 25 µM in [8]. Moreover, the GI50 in assay [3] was 5.4 µM; in assay [8], 7.94 µM.
For the compound `NC(=O)OCC(COc1ccc(Cl)cc1)OC(=O)c1cc([N+](=O)[O-])cc([N+](=O)[O-])c1` (centres undefined), the TGI in assay [1], in assay [2], in assay [3], in assay [4], in assay [5] and in assay [6] was above 100 µM throughout. Further, the TGI in [7] and in [8] was above 100 µM throughout.
`COC(=O)C1=C(C)N(NC(=O)c2cccc(Cl)c2)C(C)(O)C12CCOC2=O` (centres undefined): the TGI in assay [1], in assay [2], in assay [4], in [5], in [6] and in [7] was above 100 µM in each case.
`COc1cc(C2C(C(=O)OCc3ccccc3)=C(C)NC(C)=C2C(=O)OCc2ccccc2)cc(OC)c1OC`: the GI50 was 3.35 µM in [2]; 1.48 µM in assay [9]; 3.82 µM in [4]; 3.67 µM in [10]; 2.41 µM in [5]; 4.69 µM in [6]. The TGI in assay [2], in assay [9], in [4], in [10], in [5] and in assay [6] was above 100 µM each time.
Turning to `C/C=C/C=C\C(=O)C1c2cccc(O)c2C(=O)c2c(O)cc(C)cc21` (centres undefined), the TGI in assay [1] is 3.33 µM; in [2] it was 4.21 µM; in [3], above 100 µM; in [4], 3.46 µM; in [5], 2.57 µM; in assay [6] it was 2.74 µM. Moreover, the TGI was 2.2 µM in [7] and 7.04 µM in assay [8].
Take `CNC(=O)OCc1cc2ccncc2c2c1[nH]c1ccccc12`: the TGI in [1] is above 100 µM; in [2], above 100 µM; in [3], above 100 µM; in assay [4], above 100 µM; in assay [5] it was above 100 µM; in assay [6], above 80.3 µM. Further, the TGI in [7] and in assay [8] was above 100 µM each time.
Take `C[C@]12CC/C(=N\OC(=O)Nc3ccccc3)C=C1CC[C@@H]1C2CC[C@@]2(C)C1CC[C@@H]2OC(=O)Nc1ccccc1` (some centres undefined): the TGI in assay [1], in assay [2], in assay [3], in assay [6], in [7] and in assay [8] was above 100 µM each time.
`Cc1cn2c(/C=N/N=C(N)N)c(-c3cc(Cl)sc3Cl)nc2s1`: the GI50 in [1] is 0.886 µM; in assay [2], 1.72 µM; in assay [9] it was 0.8 µM; in assay [3], 0.76 µM; in [7], 1.98 µM. In addition, the TGI is 1.59 µM in assay [1]; 12.1 µM in assay [2]; 1.48 µM in [9]; 1.57 µM in assay [3]; above 50 µM in assay [7].
